Entries after “also recorded” stand apart in the source; their conditions may differ.
Assays:
Assay type in all cases: physicochemical
[1] = Stability of Form CSI on storage (XRPD form, chemical purity)
Description: The parameters for purity tests of the present disclosure are as follows: [table] Approximately 5 mg of solid samples of Form CSI were stored under different conditions of 25° C./60% RH, 40° C./75% RH and 60° C./75% RH. Chemical purity and crystalline form were checked by HPLC and XRPD, respectively.

[2] = Kinetic solubility in SGF, FaSSIF, FeSSIF and water
Description: The parameters for kinetic solubility tests of the present disclosure are as follows:
When solubility test is used to predict the in vivo performance of a drug, it is critical to simulate in vivo conditions as closely as possible. For oral medication, Simulated Gastric Fluid (SGF), Fasted-State Simulated Intestinal Fluid (FaSSIF), Fed-State Simulated Intestinal Fluid (FeSSIF) can be used to simulate the condition in vivo and predict the effects of feeding, thus solubility in such mediums is closer to that in vivo.
20 mg of Form CSI and 20 mg of WO2014014835 Form A were suspended into 4.0 mL of SGF, 4.0 mL of FaSSIF, 4.0 mL of FeSSIF and 4.0 mL of water to get saturated solutions. After equilibrated for 1 h, 4 h, 8 h and 24 h, the concentrations (μg/mL) of Compound I of the saturated solutions were measured by UPLC.

[3] = Pressure stability on tableting (XRPD)
Description: Certain amount of Form CSI was compressed into tablets under different pressures with suitable tableting die. Crystalline forms before and after tableting were checked by XRPD.

[4] = Crystalline form stability in the formulation process (XRPD); settings: capsule formulation of Table 17, process of Table 18
Description: Form CSI of the present disclosure and WO2014014835 Form A were made into capsules using the formulation in Table 17 and the preparation process in Table 18. The XRPD patterns were collected before and after the formulation process. […] [table] [table]

[5] = Intrinsic dissolution (IDR); settings: for IDR: slope of data within 5-120 minutes
Description: The parameters for intrinsic dissolution tests in the present disclosure are as follows:
Approximately 100 mg of Form CSI or WO2014014835 Form A was added into the cavity of the die, and then compressed at 10 kN and held for 0.5 minute to obtain a tablet having a surface area of 0.5 cm^2. The die with the tablet still embedded was put into a dissolution apparatus to test the intrinsic dissolution. The slope (in μg/min) of the regression line was calculated according to the data within 5-120 minutes. IDR (in μg/min/cm^2) was further calculated according to the slope.

[6] = Compressibility (tablet hardness, tensile strength); settings: 80 mg, compressed at 10 kN
Description: ENERPAC manual tablet press was used for compression. 80 mg of Form CSI and WO2014014835 Form A were weighed and added into the dies of a φ6 mm round tooling, compressed at 10 kN, then stored at room temperature for 24 h until complete elastic recovery. Hardness (H) was tested with an intelligent tablet hardness tester. Diameter (D) and thickness (L) were tested with a caliper. Tensile strength of the powder was calculated with the following formula: T=2H/πDL*9.8. Under a certain force, the greater the tensile strength, the better the compressibility.

[7] = Physical stability on grinding (XRPD); settings: ground manually for 5 min in a mortar
Description: Form CSI and WO2014014835 Form A was ground manually for 5 min in a mortar.

Hygroscopicity by DVS = assay: Hygroscopicity by DVS
Description: Dynamic Vapor Sorption (DVS) was measured via an SMS (Surface Measurement Systems Ltd.) intrinsic DVS instrument. Its control software is DVS-Intrinsic control software. Typical parameters for DVS test are as follows: Temperature: 25° C. Gas and flow rate: N2, 200 mL/min dm/dt: 0.002%/min RH range: 0% RH to 95% RH DVS was applied to test the hygroscopicity of Form CSI and WO2014014835 Form A with about 10 mg of samples. The weight gains at each relative humidity were recorded in a cycle of 0-95%-0 RH. XRPD test was applied before and after DVS. Description and definition of hygroscopicity (general notice 9103 drug hygroscopicity test guidelines in 2015 edition of Chinese Pharmacopoeia, test at 25° C.±1° C., 80% RH. The definition of hygroscopicity in the 9th European Pharmacopoeia 5.11 is similar to the Chinese Pharmacopoeia.).

[8] = 25° C./60% RH, sealed, 3 months
[9] = 40° C./75% RH, sealed, 3 months

Question: For Cc1nc(C(=O)NCC(=O)O)c(O)c2ccc(Oc3ccccc3)cc12 [Form CSI, [(4-hydroxy-1-methyl-7-phenoxy-isoquinoline-3-carbonyl)-amino]-acetic acid], which “Chemical purity during storage” value ([1]; 25° C./60% RH) is on record?
Answer: above 99.5%

Question: What about the “Time the drug substance kept stable (crystalline state unchanged)” value ([1]; 25° C./60% RH) of the same molecule?
Answer: at least three months

Question: And the “Crystalline form (XRPD) after storage” value ([1]; 25° C./60% RH, open, 3 months)?
Answer: Form CSI

Question: What about the Purity after storage ([1]; 25° C./60% RH, open, 3 months) of the same molecule?
Answer: 99.68%

Question: What about the “Crystalline form (XRPD) after storage” value [1, 8] of the same molecule?
Answer: Form CSI

Question: And the Purity after storage [1, 8]?
Answer: 99.65%

Question: And the “Time the drug substance kept stable (crystalline state unchanged)” value ([1]; 40° C./75% RH)?
Answer: at least three months

Question: And the “Chemical purity during storage” value ([1]; 40° C./75% RH and 60° C./75% RH)?
Answer: above 99.5%

Question: What about the “Crystalline form (XRPD) after storage” value ([1]; 40° C./75% RH, open, 3 months) of the same molecule?
Answer: Form CSI

Question: And the Purity after storage ([1]; 40° C./75% RH, open, 3 months)?
Answer: 99.68%

Question: And the “Crystalline form (XRPD) after storage” value [1, 9]?
Answer: Form CSI

Question: And the Purity after storage [1, 9]?
Answer: 99.66%

Question: And the “Time the drug substance kept stable (crystalline state unchanged)” value ([1]; 60° C./75% RH)?
Answer: at least one month

Question: And the “Crystalline form (XRPD) after storage” value ([1]; 60° C./75% RH, open, 1 month)?
Answer: Form CSI

Question: And the Purity after storage ([1]; 60° C./75% RH, open, 1 month)?
Answer: 99.63%

Question: And the “Crystalline form (XRPD) after storage” value ([1]; 60° C./75% RH, sealed, 1 month)?
Answer: Form CSI

Question: What about the Purity after storage ([1]; 60° C./75% RH, sealed, 1 month) of the same molecule?
Answer: 99.68%

Question: And the “Crystalline form (XRPD)” value ([1]; Initial)?
Answer: Form CSI

Question: And the Purity ([1]; Initial)?
Answer: 99.71%

Question: What about the “Kinetic solubility (concentration of Compound I in saturated solution)” value (shortened to “Kinetic solubility”) ([2]; FaSSIF, 1 hour) of the same molecule?
Answer: 617.0 µg/mL

Question: And the “Kinetic solubility” value ([2]; FaSSIF, 4 hours)?
Answer: 934.6 µg/mL

Question: What about the “Kinetic solubility” value ([2]; FaSSIF, 8 hours) of the same molecule?
Answer: 1043.5 µg/mL

Question: What about the “Kinetic solubility” value ([2]; FaSSIF, 24 hours) of the same molecule?
Answer: 1109.6 µg/mL

Question: What about the “Kinetic solubility” value ([2]; FeSSIF, 1 hour) of the same molecule?
Answer: 180.4 µg/mL

Question: What about the “Kinetic solubility” value ([2]; FeSSIF, 4 hours) of the same molecule?
Answer: 270.3 µg/mL

Question: And the “Kinetic solubility” value ([2]; FeSSIF, 8 hours)?
Answer: 295.3 µg/mL

Question: What about the “Kinetic solubility” value ([2]; FeSSIF, 24 hours) of the same molecule?
Answer: 314.4 µg/mL

Question: What about the “Kinetic solubility” value ([2]; SGF, 1 hour) of the same molecule?
Answer: 22.7 µg/mL

Question: What about the “Kinetic solubility” value ([2]; SGF, 4 hours) of the same molecule?
Answer: 24.0 µg/mL

Question: And the “Kinetic solubility” value ([2]; SGF, 8 hours)?
Answer: 24.2 µg/mL

Question: And the “Kinetic solubility” value ([2]; SGF, 24 hours)?
Answer: 24.0 µg/mL

Question: What about the “Kinetic solubility” value ([2]; water, 1 hour) of the same molecule?
Answer: 18.2 µg/mL

Question: What about the “Kinetic solubility” value ([2]; water, 4 hours) of the same molecule?
Answer: 21.9 µg/mL

Question: And the “Kinetic solubility” value ([2]; water, 8 hours)?
Answer: 34.1 µg/mL

Question: What about the “Kinetic solubility” value ([2]; water, 24 hours) of the same molecule?
Answer: 25.7 µg/mL

Question: What about the “Crystalline form after tableting (XRPD)” value ([3]; pressure 10 KN) of the same molecule?
Answer: Form CSI

Question: And the “Crystalline form after tableting (XRPD)” value ([3]; pressure 15 KN)?
Answer: Form CSI

Question: What about the “Crystalline form before and after the formulation process (XRPD)” value [4] of the same molecule?
Answer: remains stable

Question: And the “Increase of dissolution rate compared with Form A” value ([5]; pH 4.5 PBS)?
Answer: 41%

Question: What about the Cumulative dissolution ([5]; pH4.5 PBS, 5 min, 37° C., 0.5 cm^2 tablet) of the same molecule?
Answer: 36.8 µg

Question: What about the Cumulative dissolution ([5]; pH4.5 PBS, 10 min) of the same molecule?
Answer: 35.6 µg

Question: And the Cumulative dissolution ([5]; pH4.5 PBS, 15 min)?
Answer: 39.8 µg

Question: And the Cumulative dissolution ([5]; pH4.5 PBS, 20 min)?
Answer: 50.0 µg

Question: And the Cumulative dissolution ([5]; pH4.5 PBS, 25 min)?
Answer: 50.4 µg

Question: What about the Cumulative dissolution ([5]; pH4.5 PBS, 30 min) of the same molecule?
Answer: 56.0 µg

Question: What about the Cumulative dissolution ([5]; pH4.5 PBS, 45 min) of the same molecule?
Answer: 70.7 µg

Question: And the Cumulative dissolution ([5]; pH4.5 PBS, 60 min)?
Answer: 83.0 µg

Question: What about the Cumulative dissolution ([5]; pH4.5 PBS, 90 min) of the same molecule?
Answer: 114.0 µg

Question: And the Cumulative dissolution ([5]; pH4.5 PBS, 120 min)?
Answer: 142.3 µg

Question: What about the IDR ([5]; pH4.5 PBS) of the same molecule?
Answer: 1.8928 μg/min/cm^2

Question: And the Cumulative dissolution ([5]; pH6.8 PBS, 5 min, 37° C., 0.5 cm^2 tablet)?
Answer: 440.4 µg

Question: And the Cumulative dissolution ([5]; pH6.8 PBS, 10 min)?
Answer: 916.0 µg

Question: What about the Cumulative dissolution ([5]; pH6.8 PBS, 15 min) of the same molecule?
Answer: 1345.9 µg

Question: And the Cumulative dissolution ([5]; pH6.8 PBS, 20 min)?
Answer: 1758.2 µg

Question: What about the Cumulative dissolution ([5]; pH6.8 PBS, 25 min) of the same molecule?
Answer: 2152.9 µg

Question: And the Cumulative dissolution ([5]; pH6.8 PBS, 30 min)?
Answer: 2521.4 µg

Question: What about the Cumulative dissolution ([5]; pH6.8 PBS, 45 min) of the same molecule?
Answer: 3392.2 µg

Question: And the Cumulative dissolution ([5]; pH6.8 PBS, 60 min)?
Answer: 4309.7 µg

Question: What about the Cumulative dissolution ([5]; pH6.8 PBS, 90 min) of the same molecule?
Answer: 5967.2 µg

Question: What about the Cumulative dissolution ([5]; pH6.8 PBS, 120 min) of the same molecule?
Answer: 7448.5 µg

Question: And the IDR ([5]; pH6.8 PBS)?
Answer: 120.3256 μg/min/cm^2

Question: What about the Tensile strength ([6]; T=2H/πDL*9.8) of the same molecule?
Answer: 1.22 MPa

Question: And the Hardness ([6]; φ6 mm round tooling, after 24 h)?
Answer: 2.47 kgf

Question: What about the “Crystalline form and crystallinity after grinding (XRPD)” value [7] of the same molecule?
Answer: remain unchanged after grinding

Question: What about the “Weight gain under 80% RH” value (Hygroscopicity by DVS; DVS, 25° C.) of the same molecule?
Answer: 0.12%

Question: What about the Hygroscopicity class (Hygroscopicity by DVS; weight gain under 80% RH) of the same molecule?
Answer: non-hygroscopic or almost non-hygroscopic; also recorded: non hygroscopic or almost non-hygroscopic

Reference: patent publication US20220251044A1, “CRYSTAL FORM OF HYPOXIA-INDUCIBLE FACTOR-PROLYL HYDROXYLASE INHIBITOR” (CRYSTAL PHARMACEUTICAL (SUZHOU) CO., LTD., priority 2019, published 2022)
